Assay type in all cases: cell-based
Series [1] deals with gene of SEQ ID NO:88. In words: Expression inhibition of the gene of SEQ ID NO:88 by double stranded nucleic acid (NF-κB luciferase reporter, EBNA cells). The note with it: for relative luciferase activity (%): 10 pmol per well, 24 hours, firefly standardized with Renilla, control without double stranded nucleic acid = 100%; for luciferase activity / expression of the protein of SEQ ID NO: 87 (in words): EBNA cells, Lipofectamine 2000, versus cells without double stranded nucleic acid. As for the experimental part: That is, using Lipofectamine 2000 (Invitrogen), an expression vector having the polynucleotide of SEQ ID NO:88, pNFkB-Luc, phRL-TK vector and double stranded nucleic acid (A) were co-transfected into EBNA cells, and after culturing, luciferase activity was measured.
EBNA cells (Invitrogen) were inoculated on DMEM medium containing 5% FBS in a 96-well cell culture plate to a cell density of 1.2×10^4 cells/100 μl/well, and cultured for 24 hours at 37° C. in the presence of 5% CO2. Next, using Lipofectamine 2000 (Invitrogen), 50 ng of an expression vector having the polynucleotide of SEQ ID NO:88 and 50 ng of pNFkB-Luc (STRATAGENE) and 10 ng of phRL-TK vector (Promega Corporation) used as an internal standard, were co-transfected with double stranded nucleic acid 88-1 (10 pmol) prepared in (1) above into 1 well. After culturing for 24 hours at 37° C., firefly luciferase activity and Renilla reniformis luciferase activity were measured using a Dual-Luciferase Reporter Assay System (Promega Corporation). Further, each of 88-2 (10 pmol), 88-3 (10 pmol), 88-4 (10 pmol), 88-5 (10 pmol) or 88-6 (10 pmol) was co-transfected into 1 well in place of 88-1 (10 pmol), and luciferase activity was measured in the same manner. In Table 1, values for activity represent relative values when firefly luciferase activity in the control experiment (cells into which double stranded nucleic acid has not been introduced) is established as 100%. (It should be noted that values for firefly luciferase activity were standardized with values for Renilla reniformis luciferase activity used as an internal standard, before using these values in calculations.)

The test system of series [2] is gene of SEQ ID NO:88. The description is as above. The note with it: Lipofectamine 2000, versus cells without double stranded nucleic acid.
Another series relates to NF-κB activation. Kind of series: NF-κB reporter activity inhibition by proteasome inhibitor in 293-EBNA cells cotransfected with NF-κB activating protein expression vector and pNFκB-Luc. The note with it: MG-132 0.1, 0.5, 1.0 and 10 μM added 1 hour after transfection; 293-EBNA cells with vector for protein of SEQ ID NO: 5, 9, 17 ... 178; 24 hours. As for the experimental part:
293-EBNA cells were seeded on 5% FBS containing DMEM medium in a 96-well cell culture plate to a final cell density of 1×10^4 cells/100 μl/well, and cultured for 24 hours at 37° C. in the presence of 5% CO2. Then, 50 ng of the expression vector comprising the gene encoding NF-κB activating protein of SEQ ID NO: 5, 9, 17, 21, 35, 37, 41, 53, 57, 63, 67, 71, 75, 81, 87, 91, 93, 97, 121, 123, 129, 154, 158, 162, 168, 170, 172, 176 or 178, and 50 ng of the reporter plasmid pNF κB-Luc were cotransfected into the cells in a well using FuGENE 6. After 1 hour, the proteasome inhibitor MG-132 (purchased form CALBIOCHEM) (Uehara T. et al., J. Biol. Chem. 274, p. 15875-15882 (1999); Wang X. C. et al., Invest. Ophathalmol. Vis. Sci. 40, p. 477-486) was added to the culture to final concentrations of 0.1 μM, 0.5 μM, 1.0 μM and 10 μM, respectively. After 24 hours of culture at 37° C., the reporter activity was measured using PIKKA GENE LT2.0.

Strand notation (5' to 3'): a small letter for the sugar, then the base; units joined by * are phosphorothioate-linked, units joined directly phosphodiester-linked; [ ] holds rarer units or linkages, { } end groups; capitals alone tell only the bases. Where a SMILES comes first, the peptide text is derived from it. The star is where a group is joined. Cbz = O=C(OCc1ccccc1)*; d = 2'-deoxy (DNA); r = 2'-OH (RNA)

These results are taken from patent US7629453B2, “NF-κB activating gene” (Asahi Kasei Pharma Corporation, priority 2000, dated 2009).

Turning to “88-1: double stranded nucleic acid annealed from oligonucleotides A1 (SEQ ID NO: 185) and B1 (SEQ ID NO: 186), targeting SEQ ID NO: 88 (chain 1 rGrUrCrCrArGrGrArUrArUrCrArUrGrArGrUrCdTdT; chain 2 rGrArCrUrCrArUrGrArUrArUrCrCrUrGrGrArCdTdT; siRNA)”, in the series on gene of SEQ ID NO:88 [1], the “relative luciferase activity (%)” value is given as 18% and the “luciferase activity / expression of the protein of SEQ ID NO: 87 (in words)” value is listed as “exhibited inhibition of firefly luciferase activity”. The “luciferase activity / expression of the protein of SEQ ID NO: 87 (in words)” value in the series on gene of SEQ ID NO:88 [2] is listed as “markedly lower”.
Take “88-2: double stranded nucleic acid annealed from oligonucleotides A2 (SEQ ID NO: 187) and B2 (SEQ ID NO: 188) (chain 1 rGrArArGrUrCrUrGrArArGrArUrCrUrArUrCrCdTdT; chain 2 rGrGrArUrArGrArUrCrUrUrCrArGrArCrUrUrCdTdT; siRNA)”: in the series with gene of SEQ ID NO:88 [1], the “relative luciferase activity (%)” value is reported as 12% and the “luciferase activity / expression of the protein of SEQ ID NO: 87 (in words)” value is reported as “exhibited inhibition of firefly luciferase activity”. Besides, the “luciferase activity / expression of the protein of SEQ ID NO: 87 (in words)” value in the series with gene of SEQ ID NO:88 [2] (listed as (B)) was “similarly inhibited”.
As to “88-3: double stranded nucleic acid annealed from oligonucleotides A3 (SEQ ID NO: 189) and B3 (SEQ ID NO: 190) (chain 1 rGrCrUrGrArArGrArArGrArGrGrUrGrUrUrCrCdTdT; chain 2 rGrGrArArCrArCrCrUrCrUrUrCrUrUrCrArGrCdTdT; siRNA)”, in the series on gene of SEQ ID NO:88 [1], the “relative luciferase activity (%)” value came to 9% and the “luciferase activity / expression of the protein of SEQ ID NO: 87 (in words)” value is “exhibited inhibition of firefly luciferase activity”. Also, the “luciferase activity / expression of the protein of SEQ ID NO: 87 (in words)” value in the series with gene of SEQ ID NO:88 [2] (listed as (C)) is reported as “similarly inhibited”.
Regarding “88-4: double stranded nucleic acid annealed from oligonucleotides A4 (SEQ ID NO: 191) and B4 (SEQ ID NO: 192) (chain 1 rGrArUrGrArCrArCrArGrArUrGrArArGrCrCrCdTdT; chain 2 rGrGrGrCrUrUrCrArUrCrUrGrUrGrUrCrArUrCdTdT; siRNA)”, the “relative luciferase activity (%)” value in the series with gene of SEQ ID NO:88 [1] is given as 8%. For the same compound, the “luciferase activity / expression of the protein of SEQ ID NO: 87 (in words)” value in the series with gene of SEQ ID NO:88 [1] is “exhibited inhibition of firefly luciferase activity”; in the series on gene of SEQ ID NO:88 [2] (listed as (D)), “similarly inhibited”.
Turning to “88-5: double stranded nucleic acid annealed from oligonucleotides A5 (SEQ ID NO: 193) and B5 (SEQ ID NO: 194) (chain 1 GCCCUCAGAGUCCAGAAUCTT; chain 2 GAUUCUGGACUCUGAGGGCTT; siRNA; sugars from the 5' end r19 d2, backbone not given here)”, in the series with gene of SEQ ID NO:88 [1], the “relative luciferase activity (%)” value is 5% and the “luciferase activity / expression of the protein of SEQ ID NO: 87 (in words)” value is recorded as “exhibited inhibition of firefly luciferase activity”. Besides, the “luciferase activity / expression of the protein of SEQ ID NO: 87 (in words)” value with gene of SEQ ID NO:88 [2] was “similarly inhibited”.
Regarding “88-6: double stranded nucleic acid annealed from oligonucleotides A6 (SEQ ID NO: 195) and B6 (SEQ ID NO: 196) (chain 1 GAUGACUUUGGUAUCAAACTT; chain 2 GUUUGAUACCAAAGUCAUCTT; siRNA; sugars from the 5' end r19 d2, backbone not given here)”, in the series on gene of SEQ ID NO:88 [1], the “relative luciferase activity (%)” value is listed as 7% and the “luciferase activity / expression of the protein of SEQ ID NO: 87 (in words)” value is on record as “exhibited inhibition of firefly luciferase activity”. Also, in the series on gene of SEQ ID NO:88 [2] (listed as (F)), the “luciferase activity / expression of the protein of SEQ ID NO: 87 (in words)” value was “similarly inhibited”.
Turning to `CC(C)C[C@@H](C=O)NC(=O)[C@H](CC(C)C)NC(=O)[C@H](CC(C)C)NC(=O)OCc1ccccc1` [MG132, MG-132] (Cbz-Leu-Leu-Leu-aldehyde), in the series with NF-κB activation, the “expression of the reporter gene (NF-κB reporter activity)” value is recorded as “inhibited the expression of the reporter gene”.
